From the COVID Moonshot data (paper PMC11187573), “Identification of SARS-CoV-2 Mpro inhibitors through deep reinforcement learning for de novo drug design and computational chemistry approaches” (RSC Medicinal Chemistry, 2024)

What was measured:
[1] = molecular target: SARS-CoV-2 Main Protease (SARS-CoV-2) (UniProt P0DTD1)
[2] = molecular target: SARS-CoV-2 Main Protease (SARS-CoV-2) (UniProt P0DTD1); remark: listed apart in the source

| SMILES | inhibition ([1]; 20.0 µM) [%] | inhibition ([1]; 50.0 µM) [%] | inhibition ([2]; 50.0 µM) [%] | relative solubility at 20 uM | relative solubility at 100 uM | inhibition ([2]; 20.0 µM) [%] | IC50 [2] [µM] |
| --- | --- | --- | --- | --- | --- | --- | --- |
| COC1(CC(=O)Nc2cnccc2C)CC1 | -5.47 | 13.8 | 0 | 1.01 | 1 | – | – |
| CN1CCC(C(=O)NC2CCCCC2NC(=O)c2ccccc2)CC1 (stereo unspecified) | – | -15.4 | 0 | 0.98 | 0.99 | 0 | – |
| C=CC(=O)N(c1ccc(C(C)(C)C)cc1)C(C(=O)NC)c1cccnc1 (stereo unspecified) | 42.1 | 69.7 | 100 | 1.01 | 0.99 | 57.4 | 17 |
| C=CC(=O)N(c1ccc(C(C)(C)C)cc1)C(C(=O)NCc1cccnc1)c1cccnc1 (stereo unspecified) | 41.2 | 59.3 | 61.3 | 1 | 0.96 | 18.2 | – |
| C=CC(=O)N(c1ccc(C(C)(C)C)cc1)C(C(=O)NCCSC)c1cccnc1 (stereo unspecified) | 38.5 | 68.9 | 63.9 | 1 | 0.99 | 56 | 65.4 |
| C=CC(=O)N(c1ccc(C(C)(C)C)cc1)C(C(=O)NC(C)(C)C)c1cncc(Br)c1 (stereo unspecified) | 14.6 | -13.8 | 0 | 0.99 | 0.97 | 0 | – |
| O=C(Nc1ccccc1OC1CCN(Cc2ccccc2)CC1)C1CCN(C(=O)CCl)CC1 | 6.3 | 16.5 | -1.57 | 0.94 | 0.95 | – | – |
| CC(C)NC1CCN(c2ccc(S(N)(=O)=O)cc2)CC1 | -1.27 | -1.56 | 0.505 | 1 | 0.98 | 0.29 | – |
| O=C(CCl)N1CCN(Cc2cc(Cl)cc(Cl)c2)CC1 | 76.9 | 69.1 | 100 | 1 | 1 | 100 | 0.475 |
| C#CCN1CCN(C(=O)C=C)CC1 | -18.6 | -15 | – | 1.01 | 1.01 | 3.23 | – |
| O=C(CCl)N1CCN(Cc2nc(-c3cccs3)no2)CC1 | 6.55 | 17 | 0 | 0.98 | 0.93 | – | – |
| C=CC(=O)N(c1ccc(C(C)(C)C)cc1)C(C(=O)Nc1ccc(OC)cc1OC)c1cccnc1 (stereo unspecified) | 48.9 | 41.6 | 45.9 | 0.98 | 0.84 | 5.03 | – |
| Cc1ccnc2[nH]c(CC3CCN(C(=O)CCl)CC3)nc12 | 5.18 | 18.1 | 100 | 1 | 1 | – | 29.7 |
| O=C(CC(=O)Nc1ccncc1)Nc1ccccc1 | – | 12 | 0 | 1 | 1 | 0 | – |
| N#Cc1cc(Cl)cc(NC(=O)Nc2cccnc2)c1 | 23 | 43.9 | 36.5 | 0.99 | 0.88 | 6.78 | – |
| CS(=O)(=O)Cc1ccc(C(=O)Nc2cccnc2)o1 | 0.469 | 6.26 | – | 1 | 1 | 0 | – |
| CC(C)c1scnc1NC(=O)C1CCOc2ccc(Cl)cc21 (stereo unspecified) | 10 | 6.85 | 0 | 1 | 0.99 | – | – |
| Cc1cc(NC(=O)Cc2cncnc2)cc(OC2CC(=O)N2)c1 (stereo unspecified) | 49.3 | 72.7 | 45 | 1.01 | 1 | – | – |
| O=C(CCl)N1CCCC(c2nc(-c3cccnc3)nc3ccccc23)C1 (stereo unspecified) | 7.84 | 31.8 | 100 | 0.9 | 0.89 | – | – |

| SMILES | inhibition ([1]; 20.0 µM) [%] | inhibition ([1]; 50.0 µM) [%] | inhibition ([2]; 50.0 µM) [%] | relative solubility at 20 uM | relative solubility at 100 uM | inhibition ([2]; 20.0 µM) [%] | IC50 [2] [µM] |
| --- | --- | --- | --- | --- | --- | --- | --- |
| CC(=O)NCCc1cn(CC(=O)N2CCOCC2)c2ccccc12 | – | 6.56 | 0 | 0.97 | 0.96 | 0 | – |
| O=C(NCCNc1cccnn1)c1ccccc1NS(=O)(=O)c1cc(F)ccc1F | – | 7.83 | 12.1 | 1 | 1 | 0 | – |
| Cc1ccncc1NC(=O)[C@@H]1CNC(=O)O1 (stereo in doubt) | 1.35 | 1.36 | 8.86 | 1 | 1 | – | – |
| CCC(C)(C)CCN(Cc1ccsc1)C(=O)Cn1nnc2ccccc21 | – | 48.3 | 40.1 | 0.99 | 0.73 | -4.79 | – |
| C=CC(=O)N(c1ccc(C(C)OC)cc1)C(C(=O)Nc1ccccc1Br)c1cccnc1 (stereo unspecified) | 3.04 | 9.73 | – | 0.89 | 0.84 | 0 | – |
| O=C(c1cc(=O)[nH]c2ccccc12)N1CCN(S(=O)(=O)c2ccccc2)CC1 | 16.1 | 40.7 | 3.07 | 0.98 | 0.97 | – | – |
| O=C(Nc1ccccc1)Nc1cnc2ccc([N+](=O)[O-])cc2n1 | -15.3 | 9.06 | 0.772 | 0.86 | 0.84 | – | – |
| CC(NC(=O)c1ccccc1OCC(N)=O)c1cnn(C)c1 (stereo unspecified) | -1.52 | 2.68 | 0 | 1 | 1 | 0 | – |
| Cc1ccncc1NC(=O)Nc1cncc(C#N)c1 | 3.67 | 3.96 | 15.5 | 1 | 1 | – | – |
| NS(=O)(=O)c1ccc(N2CCC(c3ccncc3)CC2)cc1 | 0.875 | 1.65 | 1.84 | 1 | 0.94 | 1.05 | – |
| O=C1C(=O)N(Cc2ccccc2)c2cc(Br)ccc21 | 0.852 | -0.164 | 0 | 0.99 | 0.59 | – | – |
| NS(=O)(=O)c1ccc(N2CCC(CN3CCCCC3)CC2)cc1 | -23.1 | -2.58 | 22.7 | 1 | 1.01 | – | – |
| C=CC(=O)N(c1ccc(C(C)(C)C)cc1)C(C(=O)NC(C)(C)C)c1cncc(OCC)c1 (stereo unspecified) | -1.87 | 2.59 | 15 | 0.99 | 0.89 | -0.816 | – |
| Cc1nnn(C)c1NC(=O)Cc1cccc(Cl)c1 | -9.24 | -12.3 | 5.47 | 1 | 1 | – | – |
| O=C(Nc1cccnc1)c1cc(Cl)ccc1-c1ccccc1 | 47.4 | 60.4 | – | 1 | 0.97 | 2.13 | – |
| CCOC(=O)[C@H]1O[C@@H]1C(=O)N[C@@H](CC(C)C)C(=O)NCCC(C)C (stereo in doubt) | -1.54 | -5.21 | 0 | 1 | 1 | – | – |
| N#Cc1ccc(O)c(NC(=O)Cc2cccnc2)c1 | -15.4 | -8.48 | 0 | 1 | 0.95 | – | – |
| CS(=O)(=O)c1oc(-c2ccc(F)cc2)nc1S(=O)(=O)c1ccc(Cl)cc1 | 10.8 | 11 | 0 | 0.78 | 0.45 | – | – |
| O=C(NCc1cnccn1)c1sc2cccc(F)c2c1COc1ccccc1 | -1.73 | 6.32 | -0.855 | 0.95 | 0.44 | 0 | – |
